How the values were obtained:
[1] = tested on: vasopressin (AVP)-dependent redistribution of the aquaporin-2 (AQP2) water channel in renal principal cells (IMCD cells); assay: AVP-induced redistribution of AQP2 in primarily cultured IMCD cells (immunofluorescence, laser scanning microscope); assay type: cell-based, rat; conditions: FIG. 18 and 21
Procedure: Initially, collecting duct cells from the inner medulla of rat kidneys (IMCD cells) can be stimulated with AVP in the presence or absence of the substances so as to stimulate AQP2 translocation. Thereafter, immunofluorescence staining can be performed, wherein the cells—following incubation—are fixed and made permeable. Using antibodies coupled to fluorescent dyes, the intracellular localization of AQP2 can subsequently be determined under a fluorescence microscope. In this way it is possible to investigate the influence of the substances on the presumably AKAP18delta-dependent translocation of AQP2.
Inhibition of the vasopressin (AVP)-dependent redistribution of the aquaporin-2 (AQP2) water channel in renal principal cells by the substances specified (see Table B; concentrations of inhibitors in μM). Primarily cultured principal cells from the inner medulla of rat kidneys (IMCD cells) represent a model for the AVP-induced translocation of AQP2. Said redistribution is the molecular basis of AVP-induced water reabsorption in the kidneys. AQP2 was detected by means of a specific antiserum and Cy3-labelled secondary antibodies in untreated cells (control) and in cells treated with AVP or substances, using a laser scanning microscope (Tamma et al., 2003; Henn et al., 2004).
Effect of the low-molecular weight substances 18882, 990 and 990 derivatives SM61 and SM65 on AVP-induced redistribution of AQP2 in IMCD cells (see FIG. 18). The structures and chemical properties of the substances are illustrated in Tables A, B and C (concentrations of inhibitors in μM). AQP2 was detected by means of a specific antiserum and Cy3-labelled secondary antibodies in untreated cells (control) and in cells treated with AVP or substances, using a laser scanning microscope (Tamma et al., 2003; Henn et al., 2004). […] In contrast, the substances 18882 and the 990 derivative SM65 have no influence on AVP-induced AQP2 redistribution at the concentrations used.

[2] = tested on: L-type Ca^2+ channel currents; assay: Patch-clamp measurement of L-type Ca2+ channel currents in neonatal rat myocardial cells; assay type: cell-based; conditions: isoproterenol 1 μM stimulation, FIG. 24
Source text: Another experiment is measurement of the Ca^2+ currents through L-type Ca^2+ channels in primarily cultured myocardial cells from neonatal rats using the patch clamp technique. To this effect, membrane sections of a single cell are fixed by a buffer-filled glass capillary, and a constant voltage is applied across the membrane. A current pulse can trigger a measurable increase of the Ca^2+ current through the voltage-dependent L-type Ca^2+ channels situated in the fixed membrane region.
After stimulating the cells with the non-specific β-adrenoreceptor agonist isoproterenol, an increase of the Ca^2+ channel current is to be expected because receptor activation triggers the AKAP18alpha-dependent signal cascade described in section 3.3. As a result, the L-type Ca^2+ channel is phosphorylated, thereby increasing its open probability. Such measurements can be performed in the presence or absence of the substances, so that the effect on the signaling pathway can be quantified indirectly via the currents being measured.
L-type Ca^2+ channel currents were measured in neonatal rat myocardial cells using the patch-clamp technique. The cells were held at −70 mV and repeatedly depolarized to a test potential of 0 mV (after an increase to −35 mV for 400 ms). […] Currents were measured 400 s after the whole cell configuration had established. […]

[3] = target: T1, interaction of AKAP18delta with regulatory RIIalpha subunits of PKA in myocardial cells (Rattus norvegicus, UniProt P12368+Q6JP77); assay: cAMP agarose precipitation, Western blot and RII overlay in neonatal myocardial cells; assay type: cell-based; conditions: 100 μM, 30 min, FIG. 23
T1 construct: endogenous in cells; host or cells: primary cultured neonatal (rat) myocardial cells
Procedure: In contrast, substance 990 has no influence on this interaction. The substances (see Tables A, B and D) were identified by screening a substance library comprising 20,064 compounds, using the ELISA-based test array illustrated in FIG. 17. Primarily cultured neonatal myocardial cells either remained untreated (control) or were incubated for 30 min with the substances 990, 18882 (100 μM each time) or with cAMP as negative control. Subsequently, the cells were lysed and subjected to cAMP agarose precipitation (Henn et al., JBC 279, 26654, 2004). A: AKAP18delta was detected in the lysates and in the cAMP agarose precipitates (cAMP agarose), using the AKAP18delta-specific antibody A18delta4 in a Western blot (Henn et al., JBC 279, 26654, 2004). cAMP was added to the batch as negative control. As a result, binding of regulatory subunits of PKA to the cAMP agarose was inhibited in a competitive fashion. For this reason, no AKAPs are precipitated and, as a consequence, AKAP18delta cannot be detected in this sample. AKAP18delta produced in a recombinant fashion was used as positive control. B: Using Western blotting, regulatory RIIbeta subunits of PKA were detected in the same samples as specified in A. As expected, no RIIbeta is detected in the sample containing cAMP (see A.). […] AKAP18delta produced in a recombinant fashion was detected as positive control.

[4] = target: T2, interaction of AKAP18delta with regulatory RIIalpha subunits of PKA in IMCD cells (Rattus norvegicus, UniProt P12368+Q6JP77); assay: cAMP agarose precipitation, Western blot and RII overlay in IMCD cells; assay type: cell-based; conditions: 100 μM, 30 min, FIG. 22
T2 construct: endogenous in cells; host or cells: primary cultured rat IMCD cells
Procedure: The substance (see Tables A, B and D) was identified by screening a substance library comprising 20,064 compounds, using the ELISA-based test array illustrated in FIG. 17. Primarily cultured IMCD cells either remained untreated (control) or were incubated for 30 min with substance 990 (100 μM) or with cAMP as negative control. Subsequently, the cells were lysed and subjected to cAMP agarose precipitation (Henn et al., JBC 279, 26654, 2004).
A: AKAP18delta was detected in the lysates and in the cAMP agarose precipitates (cAMP agarose) using the AKAP18delta-specific antibody A18delta4 in a Western blot (Henn et al., 2004). cAMP was added to the batch as negative control. As a result, binding of regulatory subunits of PKA to the cAMP agarose was inhibited in a competitive fashion. For this reason, no AKAPs are precipitated and, as a consequence, AKAP18delta cannot be detected in this sample. AKAP18delta produced in a recombinant fashion was used as positive control.
B: To detect the AKAPs in the lysates and cAMP agarose precipitates, an RII overlay was carried out (Henn et al., JBC 279, 26654, 2004). AKAP18delta produced in a recombinant fashion was detected as positive control. AKAP18delta is indicated by arrows in A and B.

T1 sequence (P12368 2-401): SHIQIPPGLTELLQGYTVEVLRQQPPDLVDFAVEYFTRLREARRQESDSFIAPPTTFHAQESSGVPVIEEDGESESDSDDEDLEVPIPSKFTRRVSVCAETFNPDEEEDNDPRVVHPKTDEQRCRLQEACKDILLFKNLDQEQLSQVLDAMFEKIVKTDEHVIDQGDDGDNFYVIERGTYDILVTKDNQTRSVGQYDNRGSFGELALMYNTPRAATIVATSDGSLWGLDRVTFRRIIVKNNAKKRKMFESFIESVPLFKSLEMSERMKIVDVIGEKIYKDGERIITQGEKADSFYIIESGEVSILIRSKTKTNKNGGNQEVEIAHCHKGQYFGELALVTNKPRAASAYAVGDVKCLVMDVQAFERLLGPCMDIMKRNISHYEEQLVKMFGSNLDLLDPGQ
T1 sequence (Q6JP77 whole entry): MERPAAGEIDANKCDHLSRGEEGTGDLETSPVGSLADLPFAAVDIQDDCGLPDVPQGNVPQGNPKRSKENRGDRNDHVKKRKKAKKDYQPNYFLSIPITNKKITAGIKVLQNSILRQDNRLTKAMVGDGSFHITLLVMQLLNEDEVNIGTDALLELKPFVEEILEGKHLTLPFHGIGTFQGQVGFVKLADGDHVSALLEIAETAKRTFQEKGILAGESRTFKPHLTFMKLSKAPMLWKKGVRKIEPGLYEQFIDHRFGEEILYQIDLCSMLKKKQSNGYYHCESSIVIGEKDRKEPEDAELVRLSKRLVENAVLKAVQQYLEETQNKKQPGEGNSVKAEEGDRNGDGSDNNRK
T2 sequence (Q6JP77 whole entry): as above
T2 sequence (P12368 whole entry): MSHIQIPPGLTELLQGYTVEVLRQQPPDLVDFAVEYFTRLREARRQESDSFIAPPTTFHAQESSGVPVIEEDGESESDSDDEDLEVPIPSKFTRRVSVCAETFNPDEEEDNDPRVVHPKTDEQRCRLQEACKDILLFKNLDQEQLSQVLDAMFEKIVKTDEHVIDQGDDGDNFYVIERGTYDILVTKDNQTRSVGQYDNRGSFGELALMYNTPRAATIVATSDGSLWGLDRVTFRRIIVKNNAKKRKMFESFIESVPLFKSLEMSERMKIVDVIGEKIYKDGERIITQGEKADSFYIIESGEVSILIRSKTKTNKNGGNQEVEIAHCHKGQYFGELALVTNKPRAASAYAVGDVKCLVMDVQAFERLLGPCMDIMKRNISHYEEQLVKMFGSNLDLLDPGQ

Inhibition of AKAP18delta-RIIalpha interaction in myocardial cells [3] | Inhibition of AKAP18delta-RIIalpha interaction in IMCD cells [4] | Compound | Effect on AVP-induced redistribution of AQP2 [1] | Effect on L-type Ca2+ channel currents [2]
inhibits the interaction |  | Nc1cc(Cc2ccc(O)c(N)c2)ccc1O [Compound 18882] | no influence | Inhibition of L-type Ca^2+ channel currents
no influence | inhibits the interaction | N=C(N)SCc1cccc2ccccc12 [Compound 990] | prevents the AVP-induced redistribution of AQP2 | 

Source: patent US20090176773A1, “Non-Peptidic Inhibitors of AKAP/PKA Interaction” (FORSCHUNGSVERBUND BERLIN E.V., priority 2005, published 2009)
